{"source": "paper PMC5218480", "about": "(PLoS ONE, 2017)", "system": "MV-4-11 cells", "test": "Gene expression microarray analysis (Affymetrix PrimeView) and GSEA", "type": "cell-based, human", "design": "RFU PODN (11730768_x_at) / Fold change /veh PODN (11730768_x_at) / RFU LINC00158 (11744669_a_at) / Fold change /veh LINC00158 (11744669_a_at) / RFU DUSP10 (11751237_a_at) / Fold change /veh DUSP10 (11751237_a_at) / RFU ID3 (11757404_x_at) / Fold change /veh ID3 (11757404_x_at) / RFU PLEKHG5 (11737974_s_at) / Fold change /veh PLEKHG5 (11737974_s_at) / RFU LRRC4B (11730491_at) / Fold change /veh LRRC4B (11730491_at) / RFU GIMAP4 (11747438_a_at) / Fold change /veh GIMAP4 (11747438_a_at) / RFU KRT8 (11758183_x_at) / Fold change /veh KRT8 (11758183_x_at) / RFU CNN1 (11734310_a_at) / Fold change /veh CNN1 (11734310_a_at) / RFU VPS37D (11726825_at) / Fold change /veh VPS37D (11726825_at) / RFU C10orf10 (11716522_x_at) / Fold change /veh C10orf10 (11716522_x_at) / RFU KIR2DL2 /// KIR2DL4 /// KIR2DL5A /// KIR2DL5B /// KIR2DS1 /// KIR2DS2 /// KIR2DS3 /// KIR2DS4 /// KIR3DL3 /// KIR3DL3 /// KIR3DS1 (11738374_at) / Fold change /veh KIR2DL2 /// KIR2DL4 /// KIR2DL5A /// KIR2DL5B /// KIR2DS1 /// KIR2DS2 /// KIR2DS3 /// KIR2DS4 /// KIR3DL3 /// KIR3DL3 /// KIR3DS1 (11738374_at) / RFU C1QL1 (11718748_at) / Fold change /veh C1QL1 (11718748_at) / RFU TMPRSS4 (11747572_a_at) / Fold change /veh TMPRSS4 (11747572_a_at) / RFU HAMP (11756126_x_at) / Fold change /veh HAMP (11756126_x_at) / RFU RNFT2 (11725882_a_at) / Fold change /veh RNFT2 (11725882_a_at) / RFU NR4A2 (11747474_a_at) / Fold change /veh NR4A2 (11747474_a_at) / RFU ABCC12 (11746883_a_at) / Fold change /veh ABCC12 (11746883_a_at) / RFU TMEM136 (11760407_x_at) / Fold change /veh TMEM136 (11760407_x_at) / RFU CLDN22 /// WWC2 (11732394_at) / Fold change /veh CLDN22 /// WWC2 (11732394_at) / RFU HLA-DPB1 (11760878_x_at) / Fold change /veh HLA-DPB1 (11760878_x_at) / RFU SPINT1 (11716480_a_at) / Fold change /veh SPINT1 (11716480_a_at) / RFU GAP43 (11754022_s_at) / Fold change /veh GAP43 (11754022_s_at) / RFU A4GNT (11735810_at) / Fold change /veh A4GNT (11735810_at) / RFU PRB3 (11715151_x_at) / Fold change /veh PRB3 (11715151_x_at) / RFU TUBB4B (11761932_at) / Fold change /veh TUBB4B (11761932_at) / RFU CAPN14 (11732068_a_at) / Fold change /veh CAPN14 (11732068_a_at) / RFU TMCC2 (11721928_a_at) / Fold change /veh TMCC2 (11721928_a_at) / RFU IRGQ (11745062_a_at) / Fold change /veh IRGQ (11745062_a_at) / RFU FAM174B (11720279_a_at) / Fold change /veh FAM174B (11720279_a_at) / RFU TMPRSS4 (11748680_a_at) / Fold change /veh TMPRSS4 (11748680_a_at) / RFU FAM212B (11763350_a_at) / Fold change /veh FAM212B (11763350_a_at) / RFU PLEKHG5 (11743358_a_at) / Fold change /veh PLEKHG5 (11743358_a_at) / RFU ZSCAN30 (11745921_a_at) / Fold change /veh ZSCAN30 (11745921_a_at) / RFU CMKLR1 (11741424_a_at) / Fold change /veh CMKLR1 (11741424_a_at) / RFU LOC101060620 /// MAPK8IP1 (11723275_at) / Fold change /veh LOC101060620 /// MAPK8IP1 (11723275_at) / RFU SPTSSB (11747773_x_at) / Fold change /veh SPTSSB (11747773_x_at) / RFU PRSS12 (11739890_at) / Fold change /veh PRSS12 (11739890_at) / RFU BIN1 (11741810_x_at) / Fold change /veh BIN1 (11741810_x_at) / RFU WNT11 (11732464_a_at) / Fold change /veh WNT11 (11732464_a_at) / RFU C10orf10 (11716521_a_at) / Fold change /veh C10orf10 (11716521_a_at) / RFU C5orf56 (11738089_at) / Fold change /veh C5orf56 (11738089_at) / RFU CYB561 (11721691_x_at) / Fold change /veh CYB561 (11721691_x_at) / RFU ANKRD19P (11752326_a_at) / Fold change /veh ANKRD19P (11752326_a_at) / RFU OR2T12 /// OR2T33 /// OR2T8 (11738714_s_at) / Fold change /veh OR2T12 /// OR2T33 /// OR2T8 (11738714_s_at) / RFU VCAN (11748164_a_at) / Fold change /veh VCAN (11748164_a_at) / RFU JSRP1 (11732532_at) / Fold change /veh JSRP1 (11732532_at) / RFU KRTAP10-11 (11738290_x_at) / Fold change /veh KRTAP10-11 (11738290_x_at) / RFU MYO3A (11730013_a_at) / Fold change /veh MYO3A (11730013_a_at) / RFU EBF3 (11725865_a_at) / Fold change /veh EBF3 (11725865_a_at) / RFU CAMK2N1 (11719241_x_at) / Fold change /veh CAMK2N1 (11719241_x_at) / RFU C5orf56 (11738088_a_at) / Fold change /veh C5orf56 (11738088_a_at) / RFU OLFML3 (11715873_a_at) / Fold change /veh OLFML3 (11715873_a_at) / RFU LOC100653217 /// NTM (11731650_a_at) / Fold change /veh LOC100653217 /// NTM (11731650_a_at) / RFU MAPK11 (11762145_a_at) / Fold change /veh MAPK11 (11762145_a_at) / RFU FIZ1 (11724087_x_at) / Fold change /veh FIZ1 (11724087_x_at) / RFU OASL (11726364_x_at) / Fold change /veh OASL (11726364_x_at) / RFU SOX15 (11748057_x_at) / Fold change /veh SOX15 (11748057_x_at) / RFU CD79A (11719716_a_at) / Fold change /veh CD79A (11719716_a_at) / RFU HIST1H1D (11736915_at) / Fold change /veh HIST1H1D (11736915_at) / RFU CASKIN2 (11723855_a_at) / Fold change /veh CASKIN2 (11723855_a_at) / RFU LOC730098 (11760151_x_at) / Fold change /veh LOC730098 (11760151_x_at) / RFU OR4N2 (11742367_at) / Fold change /veh OR4N2 (11742367_at) / RFU PRRT2 (11749266_a_at) / Fold change /veh PRRT2 (11749266_a_at) / RFU SNX32 (11753110_a_at) / Fold change /veh SNX32 (11753110_a_at) / RFU CDHR5 (11726645_a_at) / Fold change /veh CDHR5 (11726645_a_at) / RFU RCAN1 (11760418_a_at) / Fold change /veh RCAN1 (11760418_a_at) / RFU FAM167A (11723789_a_at) / Fold change /veh FAM167A (11723789_a_at) / RFU FAM26E (11764081_at) / Fold change /veh FAM26E (11764081_at) / RFU ISYNA1 (11749810_s_at) / Fold change /veh ISYNA1 (11749810_s_at) / RFU ACY1 (11761880_at) / Fold change /veh ACY1 (11761880_at) / RFU 11764098_at / Fold change /veh 11764098_at / RFU SAMD14 (11745864_x_at) / Fold change /veh SAMD14 (11745864_x_at) / RFU NPB (11741838_a_at) / Fold change /veh NPB (11741838_a_at) / RFU TMPRSS6 (11731388_a_at) / Fold change /veh TMPRSS6 (11731388_a_at) / RFU KRTAP10-2 (11738614_at) / Fold change /veh KRTAP10-2 (11738614_at) / RFU ARHGAP8 /// PRR5-ARHGAP8 (11727945_x_at) / Fold change /veh ARHGAP8 /// PRR5-ARHGAP8 (11727945_x_at) / RFU KRTAP5-7 /// NADSYN1 (11734609_at) / Fold change /veh KRTAP5-7 /// NADSYN1 (11734609_at) / RFU RASL12 (11751679_a_at) / Fold change /veh RASL12 (11751679_a_at) / RFU CDKN2B (11736163_a_at) / Fold change /veh CDKN2B (11736163_a_at) / RFU PRF1 (11729649_at) / Fold change /veh PRF1 (11729649_at) / RFU, ZNF638 /// ZNF638-IT1 / Fold change vs veh, ZNF638 /// ZNF638-IT1 / RFU, PANK3 / Fold change vs veh, PANK3 / RFU, SH3YL1 / Fold change vs veh, SH3YL1 / RFU, ZEB2 / Fold change vs veh, ZEB2 / RFU, NRIP1 / Fold change vs veh, NRIP1 / RFU, PTTG1IP / Fold change vs veh, PTTG1IP / RFU, CAPN2 / Fold change vs veh, CAPN2 / RFU, MED14 / Fold change vs veh, MED14 / RFU, SNORA58 / Fold change vs veh, SNORA58 / RFU, C1orf63 / Fold change vs veh, C1orf63 / RFU, LRRFIP1 / Fold change vs veh, LRRFIP1 / RFU, NDUFAF7 / Fold change vs veh, NDUFAF7 / RFU, SLC12A2 / Fold change vs veh, SLC12A2 / RFU, IBTK / Fold change vs veh, IBTK / RFU, ESF1 / Fold change vs veh, ESF1 / Fold change vs veh, TMEM50B / RFU, TAOK1 / Fold change vs veh, TAOK1 / RFU, ACBD3 / Fold change vs veh, ACBD3 / RFU, TMA16 / Fold change vs veh, TMA16 / RFU, RWDD3 / Fold change vs veh, RWDD3 / RFU, BCAT1 / Fold change vs veh, BCAT1 / RFU, EDEM3 / Fold change vs veh, EDEM3 / RFU, TMEM33 / Fold change vs veh, TMEM33 / RFU, WDR75 / Fold change vs veh, WDR75 / RFU, AHCTF1 / Fold change vs veh, AHCTF1 / RFU, TFRC / Fold change vs veh, TFRC / RFU, ZDHHC17 / Fold change vs veh, ZDHHC17 / RFU, NOM1 / Fold change vs veh, NOM1 / RFU, ARL8B / Fold change vs veh, ARL8B / RFU, ZBTB11 / Fold change vs veh, ZBTB11 / RFU, TAMM41 / Fold change vs veh, TAMM41 / RFU, KIAA1704 /// LOC100996395 / Fold change vs veh, KIAA1704 /// LOC100996395 / RFU, ING1 / Fold change vs veh, ING1 / RFU, TRMT61B / Fold change vs veh, TRMT61B / RFU, FUBP3 / Fold change vs veh, FUBP3 / RFU, TP53 / Fold change vs veh, TP53 / RFU, TNKS2 / Fold change vs veh, TNKS2 / RFU, ZFP14 / Fold change vs veh, ZFP14 / RFU, ACTR2 / Fold change vs veh, ACTR2 / RFU, PPP3R1 / Fold change vs veh, PPP3R1 / RFU, PIK3R1 / Fold change vs veh, PIK3R1 / RFU, HNRNPA1 / Fold change vs veh, HNRNPA1 / RFU, RNF170 / Fold change vs veh, RNF170 / RFU, ZNF28 / Fold change vs veh, ZNF28 / RFU, RNGTT / Fold change vs veh, RNGTT / RFU, OGT / Fold change vs veh, OGT / RFU, BRD1 / Fold change vs veh, BRD1 / RFU, MARS / Fold change vs veh, MARS / RFU, ZNF655 / Fold change vs veh, ZNF655 / RFU, FAHD1 / Fold change vs veh, FAHD1 / RFU, BDP1 / Fold change vs veh, BDP1 / RFU, LRRCC1 / Fold change vs veh, LRRCC1 / RFU, ARID1A / Fold change vs veh, ARID1A / RFU, ZNF146 / Fold change vs veh, ZNF146 / RFU, ZNF330 / Fold change vs veh, ZNF330 / RFU, GPN3 / Fold change vs veh, GPN3 / RFU, C9orf123 / Fold change vs veh, C9orf123 / RFU, N4BP2L2 / Fold change vs veh, N4BP2L2 / RFU, ARFIP1 / Fold change vs veh, ARFIP1 / RFU, FAM179B / Fold change vs veh, FAM179B / RFU, BCL10 / Fold change vs veh, BCL10 / RFU, UHRF1BP1L / Fold change vs veh, UHRF1BP1L / RFU, BET1 / Fold change vs veh, BET1 / RFU, CNOT2 / Fold change vs veh, CNOT2 / RFU, ZNF268 / Fold change vs veh, ZNF268 / Fold change vs veh, ZNF507 / RFU, DGCR2 / Fold change vs veh, DGCR2 / RFU, WDSUB1 / Fold change vs veh, WDSUB1 / Fold change vs veh, HSP90B1 /// MIR3652 / RFU, ADSS / Fold change vs veh, ADSS / RFU, GK / Fold change vs veh, GK / RFU, ZNF148 / Fold change vs veh, ZNF148 / RFU, TAF9 / Fold change vs veh, TAF9 / RFU, SLC1A5 / Fold change vs veh, SLC1A5 / RFU, SLMO2 / Fold change vs veh, SLMO2 / RFU, ABCC4 / Fold change vs veh, ABCC4 / RFU, LOC101060439 /// RAP1B / Fold change vs veh, LOC101060439 /// RAP1B / RFU, RFX7 / Fold change vs veh, RFX7 / RFU, GTPBP10 / Fold change vs veh, GTPBP10 / RFU, CNEP1R1 / Fold change vs veh, CNEP1R1 / RFU, BIVM-ERCC5 /// ERCC5 / Fold change vs veh, BIVM-ERCC5 /// ERCC5 / RFU, ILF3 / Fold change vs veh, ILF3 / RFU 11762660_at / Fold change /veh 11762660_at / RFU VCAN (11757783_s_at) / Fold change /veh VCAN (11757783_s_at) / RFU DDX43 (11728927_at) / Fold change /veh DDX43 (11728927_at) / RFU KRT8 (11758188_x_at) / Fold change /veh KRT8 (11758188_x_at) / RFU NKD1 (11759106_at) / Fold change /veh NKD1 (11759106_at) / RFU SRD5A1 (11742802_a_at) / Fold change /veh SRD5A1 (11742802_a_at) / RFU TPSAB1 /// TPSB2 (11721975_s_at) / Fold change /veh TPSAB1 /// TPSB2 (11721975_s_at) / RFU GSTM3 (11746129_a_at) / Fold change /veh GSTM3 (11746129_a_at) / RFU IL23R (11737362_x_at) / Fold change /veh IL23R (11737362_x_at) / RFU TMEM51 (11727254_a_at) / Fold change /veh TMEM51 (11727254_a_at) / RFU PIWIL2 (11732686_x_at) / Fold change /veh PIWIL2 (11732686_x_at) / RFU ORM1 (11744905_x_at) / Fold change /veh ORM1 (11744905_x_at) / RFU CCDC152 (11743942_at) / Fold change /veh CCDC152 (11743942_at) / RFU ECM1 (11717891_a_at) / Fold change /veh ECM1 (11717891_a_at) / RFU IL23R (11748794_a_at) / Fold change /veh IL23R (11748794_a_at) / RFU TNFAIP8L3 (11732012_x_at) / Fold change /veh TNFAIP8L3 (11732012_x_at) / RFU MBOAT4 (11741988_at) / Fold change /veh MBOAT4 (11741988_at) / RFU 11764193_at / Fold change /veh 11764193_at / RFU TMEM53 (11763286_at) / Fold change /veh TMEM53 (11763286_at) / RFU MAGEB2 (11727129_at) / Fold change /veh MAGEB2 (11727129_at) / RFU TMEM200A (11744735_a_at) / Fold change /veh TMEM200A (11744735_a_at) / RFU CCDC152 (11751479_a_at) / Fold change /veh CCDC152 (11751479_a_at) / RFU FAM211A (11726209_a_at) / Fold change /veh FAM211A (11726209_a_at) / RFU RGS16 (11746705_a_at) / Fold change /veh RGS16 (11746705_a_at) / RFU VCAN (11755009_s_at) / Fold change /veh VCAN (11755009_s_at) / RFU RHOB (11743442_s_at) / Fold change /veh RHOB (11743442_s_at) / RFU RGS16 (11720943_a_at) / Fold change /veh RGS16 (11720943_a_at) / RFU RGS16 (11720944_at) / Fold change /veh RGS16 (11720944_at) / RFU, VPS4B / Fold change vs veh, VPS4B / RFU, CREB1 / Fold change vs veh, CREB1 / RFU, DNAJC13 / Fold change vs veh, DNAJC13 / RFU, GNAQ / Fold change vs veh, GNAQ / RFU, CDK5R1 / Fold change vs veh, CDK5R1 / RFU, ZRANB3 / Fold change vs veh, ZRANB3 / RFU, CUL4A / Fold change vs veh, CUL4A / RFU, CCNY / Fold change vs veh, CCNY / RFU, UFL1 / Fold change vs veh, UFL1 / RFU, COG3 / Fold change vs veh, COG3 / RFU, DIAPH2 / Fold change vs veh, DIAPH2 / RFU, SKA2 / Fold change vs veh, SKA2 / RFU, AFF3 / Fold change vs veh, AFF3 / RFU, LMF1 / Fold change vs veh, LMF1 / RFU, IPO11 / Fold change vs veh, IPO11 / RFU, DFFB / Fold change vs veh, DFFB / RFU, FOXP1 / Fold change vs veh, FOXP1 / RFU, CARD8 / Fold change vs veh, CARD8 / RFU, STRN3 / Fold change vs veh, STRN3 / RFU, ADK / Fold change vs veh, ADK / RFU, RASSF2 / Fold change vs veh, RASSF2 / RFU, WIPF1 / Fold change vs veh, WIPF1 / RFU, LARP1B / Fold change vs veh, LARP1B / RFU, RASA1 / Fold change vs veh, RASA1 / RFU, RB1 / Fold change vs veh, RB1 / RFU, PPFIA1 / Fold change vs veh, PPFIA1 / RFU, MAT2A / Fold change vs veh, MAT2A / RFU, CCT5 / Fold change vs veh, CCT5 / RFU, WDR92 / Fold change vs veh, WDR92 / RFU, CUX1 / Fold change vs veh, CUX1 / RFU, TTC7A / Fold change vs veh, TTC7A / RFU, TMEM135 / Fold change vs veh, TMEM135 / RFU, DEPTOR / Fold change vs veh, DEPTOR / RFU, CPM / Fold change vs veh, CPM / RFU, DNAJB6 / Fold change vs veh, DNAJB6 / RFU, CACNA2D3 / Fold change vs veh, CACNA2D3 / RFU, DTX4 / Fold change vs veh, DTX4 / RFU, TFCP2 / Fold change vs veh, TFCP2 / RFU, GMCL1 /// GMCL1P1 / Fold change vs veh, GMCL1 /// GMCL1P1 / RFU, AEBP2 / Fold change vs veh, AEBP2 / RFU, SNHG1 /// SNORD22 /// SNORD25 /// SNORD26 /// SNORD27 /// SNORD28 /// SNORD29 /// SNORD31 / Fold change vs veh, SNHG1 /// SNORD22 /// SNORD25 /// SNORD26 /// SNORD27 /// SNORD28 /// SNORD29 /// SNORD31 / Fold change (Aza/veh), C12orf56 (ProbeSet 11735607_a_at) / Fold change (ACY-1035/veh), C12orf56 (ProbeSet 11735607_a_at) / Fold change (Aza/veh), FGFR1OP (ProbeSet 11751329_s_at) / Fold change (ACY-1035/veh), FGFR1OP (ProbeSet 11751329_s_at) / Fold change (Aza/veh), VPS36 (ProbeSet 11739960_a_at) / Fold change (ACY-1035/veh), VPS36 (ProbeSet 11739960_a_at) / RFU SYPL1 (11715823_x_at) / Fold change /veh SYPL1 (11715823_x_at) / RFU IGFBP7 (11715501_s_at) / Fold change /veh IGFBP7 (11715501_s_at) / RFU REEP3 (11722064_at) / Fold change /veh REEP3 (11722064_at) / RFU IGLL1 (11728026_x_at) / Fold change /veh IGLL1 (11728026_x_at): dose or concentration left out as unconfirmed", "conditions": "ProbeSet 11727545_at; LIST B", "data": [{"compound": "Nc1ncn([C@@H]2O[C@H](CO)[C@@H](O)[C@H]2O)c(=O)n1", "note": "[azacitidine]", "values": [{"measurement": "RFU, PANK3", "value": 82.98, "unit": "RFU"}]}]}
